Experimental data from ChEMBL document CHEMBL5385907, “Proline-Hinged α-Helical Peptides Sensitize Gram-Positive Antibiotics, Expanding Their Physicochemical Properties to Be Used as Gram-Negative Antibiotics” (J Med Chem, 2024).
The source made the active and inactive calls. The rule behind the calls is not given here.

Assays:
[1] = test system: Klebsiella pneumoniae; assay: Potentiation of erythromycin induced antibacterial activity against Klebsiella pneumoniae ATCC 700603 assessed as decrease in bacterial growth at 0.4 uM incubated for 18 hrs in presence of erythromycin by two fold serial dilution assay; format: functional, organism-based
[2] = Hydrophobicity of the compound assessed as retention time by reversed-phase HPLC analysis; format: physicochemical
[3] = test system: Klebsiella pneumoniae; assay: Antibacterial activity against Klebsiella pneumoniae ATCC 700603 assessed as inhibition of bacterial growth incubated for 18 hrs by two fold serial dilution assay; format: functional
[4] = test system: Klebsiella pneumoniae; assay: Potentiation of fusidic acid induced antibacterial activity against Klebsiella pneumoniae ATCC 700603 assessed as decrease in bacterial growth at 0.4 uM incubated for 18 hrs in presence of fusidic acid by two fold serial dilution assay; format: functional, organism-based
[5] = test system: Escherichia coli; assay: Potentiation of erythromycin induced antibacterial activity against Escherichia coli ATCC 25922 assessed as decrease in bacterial growth at 0.4 uM incubated for 18 hrs in presence of erythromycin by two fold serial dilution assay; format: functional, organism-based
[6] = test system: Klebsiella pneumoniae; assay: Potentiation of novobiocin induced antibacterial activity against Klebsiella pneumoniae ATCC 700603 assessed as decrease in bacterial growth at 0.4 uM incubated for 18 hrs in presence of novobiocin by two fold serial dilution assay; format: functional, organism-based
[7] = test system: Escherichia coli; assay: Antibacterial activity against Escherichia coli ATCC 25922 assessed as inhibition of bacterial growth incubated for 18 hrs by two fold serial dilution assay; format: functional
[8] = test system: Acinetobacter baumannii; assay: Potentiation of fusidic acid induced antibacterial activity against Acinetobacter baumannii ATCC 17978 assessed as decrease in bacterial growth at 0.4 uM incubated for 18 hrs in presence of fusidic acid by two fold serial dilution assay; format: functional, organism-based
[9] = test system: Acinetobacter baumannii; assay: Antibacterial activity against Acinetobacter baumannii ATCC 17978 assessed as inhibition of bacterial growth incubated for 18 hrs by two fold serial dilution assay; format: functional
[10] = test system: Escherichia coli; assay: Potentiation of fusidic acid induced antibacterial activity against Escherichia coli ATCC 25922 assessed as decrease in bacterial growth at 0.4 uM incubated for 18 hrs in presence of fusidic acid by two fold serial dilution assay; format: functional, organism-based
[11] = test system: Acinetobacter baumannii; assay: Potentiation of erythromycin induced antibacterial activity against Acinetobacter baumannii ATCC 17978 assessed as decrease in bacterial growth at 0.4 uM incubated for 18 hrs in presence of erythromycin by two fold serial dilution assay; format: functional, organism-based
[12] = test system: Acinetobacter baumannii; assay: Potentiation of novobiocin induced antibacterial activity against Acinetobacter baumannii ATCC 17978 assessed as decrease in bacterial growth at 0.4 uM incubated for 18 hrs in presence of novobiocin by two fold serial dilution assay; format: functional, organism-based
[13] = test system: Escherichia coli; assay: Potentiation of novobiocin induced antibacterial activity against Escherichia coli ATCC 25922 assessed as decrease in bacterial growth at 0.4 uM incubated for 18 hrs in presence of novobiocin by two fold serial dilution assay; format: functional, organism-based
[14] = Hemolytic activity in human blood assessed as hemolysis incubated for 6 hrs by microplate reader analysis; format: toxicity, tissue-based
[15] = test system: Escherichia coli; assay: Potentiation of rifampicin induced antibacterial activity against NDM1-producing carbapenem-resistant Escherichia coli infected CD1 mouse sepsis model assessed as reduction in bacterial colony forming unit in blood at 10 mg/kg,SC administrated after 6 hrs of post-infection in presence of rifampicin; format: functional
[16] = test system: Escherichia coli; assay: Potentiation of rifampicin induced antibacterial activity against NDM1-producing carbapenem-resistant Escherichia coli infected CD1 mouse sepsis model assessed as reduction in bacterial colony forming unit in blood at 10 mg/kg,SC administrated after 2 hrs of post-infection in presence of rifampicin; format: functional
[17] = Nephrotoxicity in Sprague-Dawley rat assessed as increase in creatinine level at 30 mg/kg,iv administration for 1 hr and measured after 25 hrs; format: toxicity, organism-based; conditions: in vivo, 26 h
[18] = Nephrotoxicity in Sprague-Dawley rat assessed as increase in blood urea nitrogen level at 30 mg/kg,iv administration for 1 hr and measured after 25 hrs; format: toxicity, organism-based; conditions: in vivo, 26 h
[19] = test system: Escherichia coli; assay: Antibacterial activity against Escherichia coli ATCC 25922 assessed as bacterial growth inhibition incubated for 1 hr by propidium iodide staining based fluorescence assay; format: functional, organism-based
[20] = test system: Escherichia coli; assay: Antibacterial activity against Escherichia coli ATCC 25922 assessed as change in membrane fluidity incubated for 1 hr by generalized polarization assay; format: functional, organism-based

## Ac-KKLLKLLKKPLKLAK-NH2
[1]
  Activity: Active
[2]
  Retention_time: 17.1 min
[3]
  MIC: > 80 µM
[4]
  Activity: Active
[5]
  Activity: Active
[6]
  Activity: Active
[7]
  MIC: > 80 µM
[8]
  Activity: Active
[9]
  MIC: 80 µM
[10]
  Activity: Active
[11]
  Activity: Active
[12]
  Activity: Active
[13]
  Activity: Active
[14]
  MHC10: > 160 µM

## Ac-KKLLKLLKKPLKLLA-NH2
[1]
  Activity: Active
[2]
  Retention_time: 18.9 min
[3]
  MIC: > 80 µM
[4]
  Activity: Active
[5]
  Activity: Active
[6]
  Activity: Active
[7]
  MIC: > 80 µM
[8]
  Activity: Active
[9]
  MIC: 2.5 µM
[10]
  Activity: Active
[11]
  Activity: Active
[12]
  Activity: Active
[13]
  Activity: Active
[14]
  MHC10: > 160 µM

## Ac-KLLKLLKKPLKLLK-NH2
[2]
  Retention_time: 18.8 min
[3]
  MIC: > 80 µM
[7]
  MIC: > 80 µM
[9]
  MIC: 80 µM
[15]
  Activity: >3 log10CFU
[16]
  Activity: >3 log10CFU
[14]
  MHC10: > 160 µM

## COLISTIN
[17]
  Activity: 0.74 mg/dL
[18]
  Activity: 30 mg/dL

## POLYMYXIN B
[19]
  Activity: Active
[20]
  Activity: Active
